These are literature values, as cited in patent US20050244465A1, “Drug delivery systems and methods for treatment of an eye” (Allergan, Inc., priority 2004, published 2005).

For this series the following is noted: efficacy in vivo; 25 mg hydrocortisone equivalent to 1 mg dexamethasone.

As for `C[C@]12CCC(=O)C=C1CC[C@@H]1[C@@H]2[C@@H](O)C[C@@]2(C)[C@H]1CC[C@]2(O)C(=O)CO` [hydrocortisone], the “potency relative to dexamethasone” value was “approximately twentyfivefold less potent than dexamethasone”.
